Laboratory results taken from patent publication US20250101039A1, “RIFAMYCIN DERIVATIVES FOR THE TREATMENT OF DISEASES” (priority 2022, published 2025).
≈ marks a conversion by molar mass, not a printed value. Read-outs that look alike come from different tables or passages of the source.

Tests used:
S. aureus = test: MIC by broth microdilution, S. aureus; type: cell-based, Staphylococcus aureus; conditions: for MIC S. aureus: cation adjusted Mueller Hinton broth, 35° C. 20 hours
A. baumannii = test: MIC by broth microdilution, A. baumannii (WT); type: cell-based, Acinetobacter baumannii
[1] = system: M. abscessus (strain ATCC 19977); test: MIC by broth microdilution, M. abscessus; type: cell-based, Mycobacterium abscessus; conditions: strain ATCC 19977, Middlebrook 7H9 broth + ADC
A. baumannii RpoB H535C = test: microbe, parasite or virus in culture; type: cell-based, Acinetobacter baumannii; conditions: Table 4, RPMI + FCS
[2] = system: H. influenzae (strain ATCC 49247); test: MIC by broth microdilution, H. influenzae; type: cell-based, Hemophilus influenzae; conditions: strain ATCC 49247, Hemophilus test medium broth
A. baumannii RpoB H535Q = test: microbe, parasite or virus in culture; type: cell-based, Acinetobacter baumannii; conditions: Table 4, RPMI + FCS
[3] = system: S. pyogenes (strain IHMA 1117021); test: MIC by broth microdilution, S. pyogenes; type: cell-based, Streptococcus pyogenes; conditions: strain IHMA 1117021, cation adjusted Mueller Hinton broth + 5% laked horse blood
[4] = system: Enterococcus faecium (strain NCTC 12204); test: MIC by broth microdilution, E. faecium; type: cell-based; conditions: strain NCTC 12204, cation adjusted Mueller Hinton broth
[5] = system: S. pneumoniae (strain ATCC 49619); test: MIC by broth microdilution, S. pneumoniae; type: cell-based, Streptococcus pneumoniae; conditions: strain ATCC 49619, cation adjusted Mueller Hinton broth + 5% laked horse blood
[6] = system: Enterococcus faecalis (strain ATCC 51575); test: MIC by broth microdilution, E. faecalis; type: cell-based; conditions: strain ATCC 51575, cation adjusted Mueller Hinton broth
[7] = system: M. tuberculosis (H37Rv strain ATCC 27294); type: cell-based, Mycobacterium tuberculosis
[8] = system: M. smegmatis (strain ATCC 700084); test: MIC, M. smegmatis (BacTiter-Glo); type: cell-based, Mycobacterium smegmatis; conditions: strain ATCC 700084, Middlebrook 7H9 + ADC, 90% growth inhibition, 20 hours
A. baumannii RpoB H535L = test: microbe, parasite or virus in culture; type: cell-based, Acinetobacter baumannii; conditions: Table 4, RPMI + FCS
[9] = system: Staphylococcus epidermidis (strain ATCC 12228); test: MIC by broth microdilution, S. epidermidis; type: cell-based; conditions: strain ATCC 12228, cation adjusted Mueller Hinton broth
[10] = RPMI medium supplemented with 10% FCS, 35° C. 20 hours

Question: CO[C@H]1/C=C/O[C@@]2(C)Oc3c(C)c(O)c4c(c3C2=O)C2=NC3(CCCNCC3)NC2=C(NC(=O)/C(C)=C\C=C\[C@H](C)[C@H](O)[C@@H](C)[C@@H](O)[C@@H](C)[C@H](OC(C)=O)[C@@H]1C)C4=O (single isomer, unassigned) [Compound 6A] was tested. Which MIC S. aureus (S. aureus) did it give?
Answer: Its MIC S. aureus is 0.016 µg/mL (≈ 0.0199 µM).

Question: What about the MIC A. baumannii (A. baumannii; [10]) of the same compound?
Answer: The MIC A. baumannii was 0.125 µg/mL (≈ 0.155 µM).

Question: With COC1C=COC2(C)Oc3c(C)c(O)c4c(c3C2=O)C2=NC3(NC2=C(NC(=O)C(C)=CC=CC(C)C(O)C(C)C(O)C(C)C(OC(C)=O)C1C)C4=O)C1CCC3CN(C)C1 (mixture of isomers) [1 (A + B)] as the compound, how does the MIC S. aureus (S. aureus) read?
Answer: The MIC S. aureus was 0.016 µg/mL.

Question: And the MIC A. baumannii (A. baumannii; [10])?
Answer: Its MIC A. baumannii is 0.25 µg/mL.

Question: For CCCN1CC2CN(CCC)CC(C1)C21N=C2C(=C3NC(=O)/C(C)=C\C=C\[C@H](C)[C@H](O)[C@@H](C)[C@@H](O)[C@@H](C)[C@H](OC(C)=O)[C@H](C)[C@@H](OC)/C=C/O[C@@]4(C)Oc5c(C)c(O)c(c2c5C4=O)C3=O)N1 (stereo partly drawn) [Compound 4], which MIC S. aureus (S. aureus) is on record?
Answer: The MIC S. aureus was 0.016 µg/mL (≈ 0.0175 µM).

Question: What about the MIC A. baumannii (A. baumannii; [10]) of the same compound?
Answer: The MIC A. baumannii was 0.03 µg/mL (≈ 0.0327 µM).

Question: CCCN1C2CCC1CC1(C2)N=C2C(=C3NC(=O)/C(C)=C\C=C\[C@H](C)[C@H](O)[C@@H](C)[C@@H](O)[C@@H](C)[C@H](OC(C)=O)[C@H](C)[C@@H](OC)/C=C/O[C@@]4(C)Oc5c(C)c(O)c(c2c5C4=O)C3=O)N1 (single isomer, unassigned) [Compound 20B] was tested. Which MIC M. abscessus [1] did it give?
Answer: Its MIC M. abscessus is 8 µg/mL.

Question: And the MIC S. aureus (S. aureus)?
Answer: Its MIC S. aureus is 0.004 µg/mL (≈ 0.00466 µM).

Question: What about the “A. baumannii MIC, RpoB H535C” value (A. baumannii RpoB H535C) of the same compound?
Answer: The value was 0.008 µg/mL.

Question: And the MIC H. influenzae [2]?
Answer: The MIC H. influenzae was 0.25 µg/mL (≈ 0.291 µM).

Question: And the “A. baumannii MIC, RpoB H535Q” value (A. baumannii RpoB H535Q)?
Answer: Its value is 0.004 µg/mL.

Question: And the MIC S. pyogenes [3]?
Answer: Its MIC S. pyogenes is less than 0.002 µg/mL.

Question: And the MIC E. faecium [4]?
Answer: The MIC E. faecium was 0.5 µg/mL (≈ 0.582 µM).

Question: And the MIC S. pneumoniae [5]?
Answer: The MIC S. pneumoniae was less than 0.002 µg/mL.

Question: And the MIC E. faecalis [6]?
Answer: The MIC E. faecalis was 1 µg/mL (≈ 1.16 µM).

Question: And the MIC M. tuberculosis [7]?
Answer: Its MIC M. tuberculosis is 0.01 µg/mL (≈ 0.0116 µM).

Question: What about the MIC M. smegmatis [8] of the same compound?
Answer: Its MIC M. smegmatis is 0.29 µg/mL.

Question: What about the MIC A. baumannii (A. baumannii; [10]) of the same compound?
Answer: Its MIC A. baumannii is less than 0.002 µg/mL.

Question: What about the “A. baumannii MIC, WT” value (A. baumannii; Table 4, RPMI + FCS) of the same compound?
Answer: Its value is no more than 0.002 µg/mL.

Question: And the “A. baumannii MIC, RpoB H535L” value (A. baumannii RpoB H535L)?
Answer: The value was 0.5 µg/mL.

Question: What about the MIC S. epidermidis [9] of the same compound?
Answer: The MIC S. epidermidis was less than 0.002 µg/mL.

Question: Which “MIC S. aureus” value (S. aureus) does the source give for CO[C@H]1/C=C/O[C@@]2(C)Oc3c(C)c(O)c4c(c3C2=O)C2=NC3(CCCNCC3)NC2=C(NC(=O)/C(C)=C\C=C\[C@H](C)[C@H](O)[C@@H](C)[C@@H](O)[C@@H](C)[C@H](OC(C)=O)[C@@H]1C)C4=O (single isomer, unassigned) [Compound 6B] here?
Answer: The value was 16 µg/mL (≈ 19.9 µM).

Question: And the “MIC A. baumannii” value (A. baumannii; [10])?
Answer: The value was 125 µg/mL (≈ 155 µM).

Question: CO[C@H]1/C=C/O[C@@]2(C)Oc3c(C)c(O)c4c(c3C2=O)C2=NC3(NC2=C(NC(=O)/C(C)=C\C=C\[C@H](C)[C@H](O)[C@@H](C)[C@@H](O)[C@@H](C)[C@H](OC(C)=O)[C@@H]1C)C4=O)C1CC2CC3CN(C2)C1 (stereo partly drawn) [Compound 3A] was tested. Which MIC S. aureus (S. aureus) did it give?
Answer: Its MIC S. aureus is 0.008 µg/mL (≈ 0.00949 µM).

Question: What about the MIC A. baumannii (A. baumannii) of the same compound?
Answer: The MIC A. baumannii was 0.25 µg/mL (≈ 0.297 µM).

Question: Which MIC S. aureus (S. aureus) does the source give for COC1C=COC2(C)Oc3c(C)c(O)c4c(c3C2=O)C2=NC3(CC5CCC(C3)N5C3CCCC3)NC2=C(NC(=O)C(C)=CC=CC(C)C(O)C(C)C(O)C(C)C(OC(C)=O)C1C)C4=O (mixture of isomers) [15 (A + B)] here?
Answer: The MIC S. aureus was 0.03 µg/mL.

Question: What about the MIC A. baumannii (A. baumannii; [10]) of the same compound?
Answer: Its MIC A. baumannii is 0.25 µg/mL.

Question: Which MIC (S. aureus; Staphylococcus aureus, 20 h, read-out: MIC S. aureus, cation adjusted Mueller Hinton broth, 35° C. 20 hours) does the source give for CO[C@H]1/C=C/O[C@@]2(C)Oc3c(C)c(O)c4c(c3C2=O)C2=NC3(CC5CCC(C3)N5C)NC2=C(NC(=O)/C(C)=C\C=C\[C@H](C)[C@H](O)[C@@H](C)[C@@H](O)[C@@H](C)[C@H](OC(C)=O)[C@@H]1C)C4=O (single isomer, unassigned) [Compound 13A] here?
Answer: The MIC was 0.03 µg/mL (≈ 0.0361 µM).

Question: And the MIC A. baumannii (A. baumannii; [10])?
Answer: The MIC A. baumannii was 0.03 µg/mL (≈ 0.0361 µM).

Question: For COC1C=COC2(C)Oc3c(C)c(O)c4c(c3C2=O)C2=NC3(NC2=C(NC(=O)C(C)=CC=CC(C)C(O)C(C)C(O)C(C)C(OC(C)=O)C1C)C4=O)C1CCC3CN(C(C)(C)C)C1 (mixture of isomers) [2 (A + B)], which MIC S. aureus (S. aureus) is on record?
Answer: The MIC S. aureus was 0.008 µg/mL.

Question: And the MIC A. baumannii (A. baumannii; [10])?
Answer: The MIC A. baumannii was 2 µg/mL.

Question: For CO[C@H]1/C=C/O[C@@]2(C)Oc3c(C)c(O)c4c(c3C2=O)C2=NC3(CC5CCC(C3)N5C(C)C)NC2=C(NC(=O)/C(C)=C\C=C\[C@H](C)[C@H](O)[C@@H](C)[C@@H](O)[C@@H](C)[C@H](OC(C)=O)[C@@H]1C)C4=O (single isomer, unassigned) [Compound 14B], which MIC S. aureus (S. aureus) is on record?
Answer: Its MIC S. aureus is 0.008 µg/mL (≈ 0.00931 µM).

Question: And the MIC A. baumannii (A. baumannii; [10])?
Answer: The MIC A. baumannii was 0.016 µg/mL (≈ 0.0186 µM).
